{
  "source": "paper PMC9738107",
  "about": "“Targeting of the ELR+CXCL/CXCR1/2 Pathway Is a Relevant Strategy for the Treatment of Paediatric Medulloblastomas” (Cells, 2022)",
  "key": {"[1]": {"tested_on": "Daoy cells", "test": "XTT assay (cell metabolism/cytotoxicity)", "assay_type": "cell-based, human", "conditions": "for IC50: Homo sapiens, Daoy", "text": "(§1) To evaluate the efficacy of this compound in MB cells, we first determined the relative IC50 values for each cell line using XTT assays (Figure 3A–E). The XTT assay is used to measure cellular metabolic activity (overall activity of mitochondrial dehydrogenases) as an indicator of cell viability, proliferation, and cytotoxicity. […] Overall, IC50 values for all cell lines were in the micromolar range, making C29 a very efficient agent to inhibit cell metabolism and viability.\n(§2) Figure 3 A new pharmacological inhibitor of CXCR1/2, C29, inhibits the metabolism of MB cells. (A–D). Cytotoxic effect induced by C29 on Daoy (A), ONS-76 (B), HD-MB03 (C), and D341Med (D) cells. Cells were treated with increasing doses of the inhibitor for 24, 48, and 72 h. Cytotoxicity was measured using the XTT assay. Absorbance measurements were performed at […], n = 3. (E) Table with the different IC50 values for all conditions. (F) Cell death after 48 h of treatment with control (DMSO, CT) or C29 1, 2.5 or 5 µM treatment, on MB cells, and normal cells (N), n = 3. Statistics were performed using the one-way method ANOVA. ** p < 0.01, *** p < 0.001. For this figure, Daoy = Da, ONS-76 = O, HD-MB03 = HD, D341 = D3, C8D1A = C8. TEXT PRINTED IN THE PICTURE: (E) C29: IC50 (μM): 5.6 (Cell line: Daoy; 24h); IC50 (μM): 3 (Cell line: Daoy; 48h); IC50 (μM): 0.9 (Cell line: Daoy; 72h); IC50 (μM): 17.9 (Cell line: ONS-76; 24h); IC50 (μM): 6.8 (Cell line: ONS-76; 48h); IC50 (μM): 2.1 (Cell line: ONS-76; 72h); IC50 (μM): 2.6 (Cell line: HD-MB03; 24h); IC50 (μM): 1.8 (Cell line: HD-MB03; 48h); IC50 (μM): 1.3 (Cell line: HD-MB03; 72h); IC50 (μM): 7.5 (Cell line: D341Med; 24h); IC50 (μM): 4.9 (Cell line: D341Med; 48h); IC50 (μM): 4.6 (Cell line: D341Med; 72h)\n(§3) centrations of C29 in 96‐well plates for 48h. 50μl/well of XTT solution (Cell Proliferation\n(§4) kit II, Sigma‐Aldrich) were added to measure cell metabolism at 490 nm with GloMax‐ […]\n(§5) 30 μg of proteins were separated on 10% SDS‐polyacrylamide\n(§6) gels and transferred on PVDF membranes in Tris‐Glycine buffer (25 mM Tris, 192 mM\n(§7) glycine, pH 8∙3) + 20% ethanol (v:v). Membranes were blocked with 3% BSA, at room tem‐\n(§8) perature for 1 h, then immunoblotted overnight with primary antibodies diluted in 3%\n(§9) BSA, at 4 °C. The following primary antibodies were used: AKT (CST, #9272S), phospho‐\n(§10) ARD1 (homemade polyclonal rabbit antibody). Membranes were incubated with HRP‐\n(§11) conjugated secondary antibodies anti‐rabbit IgG 1/5000e (Promega), at room temperature,\n(§12) for 1h30. After washing, the Advansta WesternBright Quantum HRP substrate (Diagom‐\n(§13) ics, Blagnac, France) was used as detection reagent."}, "[2]": {"tested_on": "HD-MB03 cells", "test": "XTT assay (cell metabolism/cytotoxicity)", "assay_type": "cell-based, human", "conditions": "for IC50: Homo sapiens", "text": "as §1, §2, §3, §4, §5, §6, §7, §8, §9, §10, §11, §12, §13"}, "[3]": {"tested_on": "D341Med cells", "test": "XTT assay (cell metabolism/cytotoxicity)", "assay_type": "cell-based, human", "conditions": "for IC50: Homo sapiens, D341 Med", "text": "as §1, §2, §3, §4, §5, §6, §7, §8, §9, §10, §11, §12, §13"}, "[4]": {"tested_on": "ONS-76 cells", "test": "XTT assay (cell metabolism/cytotoxicity)", "assay_type": "cell-based, human", "conditions": "for IC50: Homo sapiens", "text": "as §1, §2, §3, §4, §5, §6, §7, §8, §9, §10, §11, §12, §13"}, "[5]": {"tested_on": "uveal melanoma cells (Mel202)", "design": "method as in PMID 24676409", "conditions": "Mel202, low expression of CXCR1/2; cited from earlier work"}},
  "data": [
    {"molecule": "O=C(Nc1cccc(Cl)c1)Nc1nc2ccc([N+](=O)[O-])cc2s1", "note": "[C29, 1-(3-chlorophenyl)-3-(6-nitrobenzo[d]thiazol-2-yl) urea]", "values": [
      {"measurement": "IC50", "setting": "[1]; 24 h", "value": 5.6, "unit": "µM"},
      {"measurement": "IC50", "setting": "[1]; 48 h", "value": 3, "unit": "µM"},
      {"measurement": "IC50", "setting": "[1]; 72 h", "value": 0.9, "unit": "µM"},
      {"measurement": "Selectivity index (SI)", "setting": "[1]; IC50 normal cells (C8D1A) / IC50 Daoy", "value": 6.44},
      {"measurement": "IC50", "setting": "[2]; HD-MB03, 24 h", "value": 2.6, "unit": "µM"},
      {"measurement": "IC50", "setting": "[2]; HD-MB03, 48 h", "value": 1.8, "unit": "µM"},
      {"measurement": "IC50", "setting": "[2]; HD-MB03, 72 h", "value": 1.3, "unit": "µM"},
      {"measurement": "Selectivity index (SI)", "setting": "[2]; IC50 normal cells (C8D1A) / IC50 HD-MB03", "value": 10.7},
      {"measurement": "Effect on cell metabolism at low concentrations", "setting": "[3]; D341Med, 72 h, 0.1 to 2.5 µM", "value": "stimulated metabolism"},
      {"measurement": "IC50", "setting": "[3]; D341Med, 24 h", "value": 7.5, "unit": "µM"},
      {"measurement": "IC50", "setting": "[3]; D341Med, 48 h", "value": 4.9, "unit": "µM"},
      {"measurement": "IC50", "setting": "[3]; D341Med, 72 h", "value": 4.6, "unit": "µM"},
      {"measurement": "Selectivity index (SI)", "setting": "[3]; IC50 normal cells (C8D1A) / IC50 D341Med", "value": 3.94},
      {"measurement": "IC50", "setting": "[4]; ONS-76, 24 h", "value": 17.9, "unit": "µM"},
      {"measurement": "IC50", "setting": "[4]; ONS-76, 48 h", "value": 6.8, "unit": "µM"},
      {"measurement": "IC50", "setting": "[4]; ONS-76, 72 h", "value": 2.1, "unit": "µM"},
      {"measurement": "Selectivity index (SI)", "setting": "[4]; IC50 normal cells (C8D1A) / IC50 ONS-76", "value": 2.84},
      {"measurement": "Effect on proliferation and survival", "setting": "[5]", "value": "no effect"}
    ]}
  ]
}
